Read-outs that look alike come from different tables or passages of the source. Where only a bound is given, the exact number is not on record here.

The term EC50 denotes the midpoint of the concentration-response curve.

Common to all, as to assay type: cell-based
The test system of assay [1] is TNFα-FL/Gaussia Luciferase. The assay can be described thus: Dox Induced TNFα-FL-Gluc Assay. Summed up:
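A stable T-REx cell line carrying doxycycline-inducible TNFα-FL/Gaussia luciferase was plated the day before assay. Compound dilutions in DMSO/media containing doxycycline were then added and incubated at 37° C, 5% CO2.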

Assay [2] relates to PD1-ss+10aa/Gaussia Luciferase. Put plainly: Dox-Induced PD1-ss-Gluc Assay. Summed up: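 Stable cell line carrying PD1-ss+10aa/Gaussia luciferase cDNA under T-REx (doxycycline-inducible) control, plated the day before assay. Compound dilutions in DMSO/media containing doxycycline added and incubated at 37° C, 5% CO2. Undefined stereocentres: data refer to stereoisomer mixtures.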

Assay [3] deals with IL-2-FL/Gaussia Luciferase. Put plainly: Dox Induced IL2-FL-Gluc Assay. Summed up:
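Stable T-REx cell line expressing doxycycline-inducible IL-2-FL/Gaussia luciferase cDNA, plated the day before assay. Compound dilutions in DMSO/media containing doxycycline added and incubated at 37° C., 5% CO2. Unspecified stereochemistry means data refer to a stereoisomer mixture.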

Assay [4] deals with human multiple myeloma cell line U266B1. Put plainly: U266 Cell Viability Assay. The following applies: U-266, 48 hr, U266B1 cells, Celltiter-Glo, read-out: 48 hr U266 Viability Celltiter-Glo: Mean EC50. Summed up:
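U266B1 myeloma cells treated with compound dilutions in DMSO/media for 48 h at 37 °C, 5% CO2. Viability read by CellTiter-Glo luminescence. Stereochemically undefined structures were tested as stereoisomer mixtures.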
A general note: ATP-based viability assays read luminescence as a measure of living cells.

Assay [5] relates to HER3-ss+4aa/Gaussia Luciferase. Put plainly: Dox-Induced Her3-ss-Gluc Assay. Summed up:
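Stable T-REx cell line carrying a doxycycline-regulated HER3-ss+4aa/Gaussia luciferase insert, plated the day before assay. Compound dilutions in DMSO/media with doxycycline added, then incubated at 37° C., 5% CO2. Stereoisomer mixtures tested where stereochemistry is not drawn.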

The subject of assay [6] is human multiple myeloma cell line NCI-H929. Put plainly: H929 Cell Viability Assay. To be noted: 48 hr, NCI-H929 cells, Celltiter-Glo, read-out: 48 hr H929 Viability Celltiter-Glo: Mean EC50. The method, then:
Plates were incubated at 37° C., 5% CO2 for 48 hours. After 48 hours, Celltiter-Glo® (Promega) was added to each well and luciferase signal was quantified using Tecan Infinite M1000 Pro for cell viability determination.
For chemical structures that include one or more stereoisomers, but are illustrated without indicating stereochemistry, the assay data refers to a mixture of stereoisomers.

Where [7] appears, read: 24 hr doxycycline induction, 293FRT/TO cells, Gaussia luciferase signal; read-out: 24 hr Dox Inducible TNFaFLGluc 293FRT/TO: Mean IC50.
[8] abbreviates: 24 hr doxycycline induction, 293FRT/TO cells, Gaussia luciferase signal; read-out: 24 hr Dox Inducible PD1ssGluc 293FRT/TO: Mean IC50.
[9] abbreviates: 24 hr doxycycline induction, 293FRT/TO cells, Gaussia luciferase signal; read-out: 24 hr Dox Inducible IL2FLGIuc 293FRT/TO: Mean IC50.
The mark [10] stands for this setting: 24 hr doxycycline induction, 293FRT/TO cells, Gaussia luciferase signal; read-out: 24 hr Dox Inducible Her3(ss + 4)Gluc 293FRT/TO: Mean IC50.
Setting [11] is: 24 hr, doxycycline-induced, 293FRT/TO cells; read-out: 24 hr Dox Inducible TNFaFLGluc 293FRT/TO: Mean IC50.
Setting [12] is: 24 hr, doxycycline-induced, 293FRT/TO cells; read-out: 24 hr Dox Inducible PD1ssGluc 293FRT/TO: Mean IC50.
The mark [13] stands for this setting: 24 hr, doxycycline-induced, 293FRT/TO cells; read-out: 24 hr Dox Inducible IL2FLGIuc 293FRT/TO: Mean IC50.
[14] abbreviates: 24 hr, doxycycline-induced, 293FRT/TO cells; read-out: 24 hr Dox Inducible Her3(ss + 4)Gluc 293FRT/TO: Mean IC50.

On to `O=C(Nc1nc([C@H]2CCN(c3ccccc3)C2)cs1)c1cccn1Cc1ccncc1` [Compound A290], for which the IC50 was determined as 4020 nM in assay [1] (setting [7]), 261 nM in assay [2] (setting [8]), 1400 nM in assay [3] (setting [9]) and 648 nM in assay [5] (setting [10]). Also, the half-maximal effective concentration (EC50) amounted to 20800 nM in assay [4] and 15200 nM in assay [6].

Take `O=C(Nc1nc([C@@H]2CCN(Cc3ccccc3)C2)cs1)c1cccn1Cc1ccncc1` [Compound A291]: the IC50 in assay [1] (setting [7]) was greater than 25000 nM; in assay [2] (setting [8]), 918 nM; in assay [3] (setting [9]), 6720 nM; in assay [5] (setting [10]), 5280 nM. Further, the EC50 is 22500 nM in assay [4] and greater than 25000 nM in assay [6].

Turning to `CC(C)(/C=C/c1ccccc1)c1csc(NC(=O)c2cccn2Cc2ccncc2)n1` [Compound A293, N-(4-(2-methyl-4-phenylbut-3-en-2-yl)thiazol-2-yl)-1-(pyridin-4-ylmethyl)-1H-pyrrole-2-carboxamide], the IC50 in assay [1] (setting [11]) stood at 3650 nM; in assay [2] (setting [12]) it was 367 nM; in assay [3] (setting [13]), 619 nM; in assay [5] (setting [14]), 632 nM. Besides, the EC50 in assay [4] was greater than 25000 nM; in assay [6] it was 11400 nM.

Turning to `O=C(Nc1nc(C2=CC(c3ccccc3)CCC2)cs1)c1cccn1Cc1ccncc1` (stereo not drawn) [Compound A294], the IC50 was determined as 4440 nM in assay [1] (setting [11]), 499 nM in assay [2] (setting [12]), 939 nM in assay [3] (setting [13]) and 1050 nM in assay [5] (setting [14]). Also, the EC50 in assay [4] and in assay [6] was greater than 25000 nM each time.

As for `O=C(Nc1nc(/C=C/c2ncc(OC3CCCC3)cc2F)cs1)c1cccn1Cc1ccncc1` [Compound A295], the IC50 in assay [1] (setting [11]) was found to be 3560 nM; in assay [2] (setting [12]), 5 nM; in assay [3] (setting [13]), 846 nM; in assay [5] (setting [14]), 692 nM. The values for the EC50 in assay [4] and in assay [6] were 18900 nM and 18300 nM, respectively.

Turning to `O=C(Nc1nc(C2COc3ccccc3C2)cs1)c1cccn1Cc1ccncc1` (stereo not drawn) [Compound A296], the IC50 in assay [1] (setting [11]) was determined as 10300 nM; in assay [2] (setting [12]) it was 655 nM; in assay [3] (setting [13]), 1150 nM; in assay [5] (setting [14]), 1210 nM. Also, the EC50 in assay [4] and in assay [6] was greater than 25000 nM in each case.

`Cc1sc(NC(=O)c2cccn2Cc2ccncc2)nc1/C=C/c1ccccc1` [Compound A297]: the IC50 in assay [1] (setting [11]) stood at 2820 nM; in assay [2] (setting [12]) it was 66 nM; in assay [3] (setting [13]), 687 nM; in assay [5] (setting [14]), 251 nM. In addition, the EC50 in assay [4] and in assay [6] was greater than 25000 nM throughout.

For the molecule `O=C(Nc1nc([C@@H]2CCCC[C@@H]2c2ccccc2)cs1)c1cccn1Cc1ccncc1` [Compound A298], the IC50 in assay [1] (setting [11]) was determined as 1660 nM; in assay [2] (setting [12]) it was 260 nM; in assay [3] (setting [13]), 450 nM; in assay [5] (setting [14]), 482 nM. Moreover, the EC50 is greater than 25000 nM in assay [4] and 13500 nM in assay [6].

As for `COc1cnc(/C=C/c2csc(NC(=O)c3cccn3Cc3ccncc3)n2)c(F)c1` [Compound A299], the IC50 in assay [1] (setting [11]) is greater than 25000 nM; in assay [2] (setting [12]), 7 nM; in assay [3] (setting [13]), 219 nM; in assay [5] (setting [14]) it was 214 nM. The EC50 in assay [4] and in assay [6] was greater than 25000 nM each time.

Regarding `O=C(Nc1nc([C@H]2CCC[C@@H]2c2ccccc2)cs1)c1cccn1Cc1ccncc1` [Compound A300, N-(4-((1S,2S)-2-phenylcyclopentyl)thiazol-2-yl)-1-(pyridin-4-ylmethyl)-1H-pyrrole-2-carboxamide], the IC50 in assay [1] (setting [11]) came to 2420 nM; in assay [2] (setting [12]), 328 nM; in assay [3] (setting [13]), 450 nM; in assay [5] (setting [14]), 589 nM. Also, the figures for the EC50 in assay [4] and in assay [6] were greater than 25000 nM and 10500 nM, respectively.

With `O=C(Nc1nc([C@H]2CCC[C@H]2c2ccccc2)cs1)c1cccn1Cc1ccncc1` [Compound A301, N-(4-((1S,2R)-2-phenylcyclopentyl)thiazol-2-yl)-1-(pyridin-4-ylmethyl)-1H-pyrrole-2-carboxamide], the IC50 in assay [1] (setting [11]) stood at 242 nM; in assay [2] (setting [12]), 43 nM; in assay [3] (setting [13]) it was 64 nM; in assay [5] (setting [14]), 54 nM. In addition, the EC50 in assay [4] is greater than 25000 nM; in assay [6] it was 2770 nM.

In the case of `O=C(Nc1nc(C2CCN(Cc3ccccc3)CC2)cs1)c1cccn1Cc1ccncc1` [Compound A302], the IC50 in assay [1] (setting [11]) is greater than 25000 nM; in assay [2] (setting [12]), 1980 nM; in assay [3] (setting [13]), 10600 nM; in assay [5] (setting [14]), 6170 nM. The EC50 in assay [4] and in assay [6] was greater than 25000 nM each time.

For the molecule `O=C(Nc1nc(/C=C/c2ccc(OC3CC3)cc2F)cs1)c1cccn1Cc1ccncc1` [Compound A304], the IC50 in assay [1] (setting [11]) amounted to 236 nM; in assay [2] (setting [12]), 20 nM; in assay [3] (setting [13]), 178 nM; in assay [5] (setting [14]), 108 nM. Also, the EC50 worked out at 14300 nM in assay [4] and 6270 nM in assay [6].

For `O=C(Nc1nc(C2CCCN(c3ccccc3)C2)cs1)c1cccn1Cc1ccncc1` (stereo not drawn) [Compound A306, N-(4-(1-phenylpiperidin-3-yl)thiazol-2-yl)-1-(pyridin-4-ylmethyl)-1H-pyrrole-2-carboxamide], the IC50 was 1790 nM in assay [1] (setting [11]), 184 nM in assay [2] (setting [12]), 489 nM in assay [3] (setting [13]) and 495 nM in assay [5] (setting [14]). Moreover, the EC50 in assay [4] is greater than 25000 nM; in assay [6], 11200 nM.

Take `O=C(Nc1nc(/C=C/c2ncccn2)cs1)c1cccn1Cc1ccncc1` [Compound A307]: the IC50 in assay [1] (setting [11]) was greater than 25000 nM; in assay [2] (setting [12]) it was 679 nM; in assay [3] (setting [13]) it was greater than 25000 nM; in assay [5] (setting [14]) it was 8810 nM. For the same molecule, the EC50 in assay [4] and in assay [6] was greater than 25000 nM in each case.

For `CC(C)(OCc1ccc(N=[N+]=[N-])cc1)c1csc(NC(=O)c2cccn2Cc2ccncc2C#N)n1` [Compound A308], the IC50 in assay [1] (setting [11]) is 13500 nM; in assay [2] (setting [12]), 879 nM; in assay [3] (setting [13]) it was 2370 nM; in assay [5] (setting [14]), 1690 nM. Further, the EC50 in assay [4] is greater than 25000 nM; in assay [6], 17200 nM.

In the case of `COc1ccc(O[C@H]2C[C@@H](c3csc(NC(=O)c4cccn4Cc4ccncc4)n3)C2)nc1` [Compound A309], the IC50 in assay [1] (setting [11]) came to 721 nM; in assay [2] (setting [12]) it was 24 nM; in assay [3] (setting [13]), 199 nM; in assay [5] (setting [14]), 71 nM. For the same molecule, the EC50 in assay [4] is 14800 nM; in assay [6], 6110 nM.

Take `O=C(Nc1nc(C2CCC(c3ccccc3)O2)cs1)c1cccn1Cc1ccncc1` (stereo not drawn) [Compound A310, N-(4-(5-phenyltetrahydrofuran-2-yl)thiazol-2-yl)-1-(pyridin-4-ylmethyl)-1H-pyrrole-2-carboxamide]: the IC50 came out at 24600 nM in assay [1] (read-out: 24 hr Dox Inducible TNFaFLGluc 293FRT/TO: Mean IC50; 24 hr, doxycycline-induced, 293FRT/TO cells); 2120 nM in assay [2] (read-out: 24 hr Dox Inducible PD1ssGluc 293FRT/TO: Mean IC50; 24 hr, doxycycline-induced, 293FRT/TO cells); 6990 nM in assay [3] (read-out: 24 hr Dox Inducible IL2FLGIuc 293FRT/TO: Mean IC50; 24 hr, doxycycline-induced, 293FRT/TO cells); 5440 nM in assay [5] (read-out: 24 hr Dox Inducible Her3(ss + 4)Gluc 293FRT/TO: Mean IC50; 24 hr, doxycycline-induced, 293FRT/TO cells). Moreover, the EC50 in assay [4] and in assay [6] was greater than 25000 nM in each case.

Turning to `COc1ccc([C@@H]2C[C@H]2c2csc(NC(=O)c3cccn3Cc3ccncc3)n2)nc1` [Compound A311], the IC50 in assay [1] (setting [11]) is 3330 nM; in assay [2] (setting [12]), 175 nM; in assay [3] (setting [13]) it was 874 nM; in assay [5] (setting [14]), 510 nM. Further, the results for the EC50 in assay [4] and in assay [6] were 6220 nM and 6020 nM, respectively.

Take `COc1ccc([C@H]2C[C@H]2c2csc(NC(=O)c3cccn3Cc3ccncc3)n2)nc1` [Compound A312]: the IC50 is 4130 nM in assay [1] (setting [11]), 197 nM in assay [2] (setting [12]), 1140 nM in assay [3] (setting [13]) and 646 nM in assay [5] (setting [14]). For the same molecule, the EC50 in assay [4] and in assay [6] was greater than 25000 nM each time.

Values taken from US20220153732A1, “PROTEIN SECRETION INHIBITORS” (KEZAR LIFE SCIENCES, priority 2019, published 2022).
